# Test results: patent US8808715B1, “Methods and compositions for modulating keratinocyte function” (Georgia Regents Research Institute, Inc, priority 2004, dated 2014)
# Experiments:
# [1] = test system: rapidly dividing keratinocytes; assay: Assay of DNA synthesis ([3H]thymidine incorporation) in rapidly dividing keratinocytes; format: cell-based; settings: for effect on DNA synthesis in presence of 125 μM Ca2+ / effect on DNA synthesis ([3H]thymidine incorporation into DNA) / concentration of maximal inhibition of DNA synthesis / inhibition of DNA synthesis compared with egg-derived PG / lowest concentration at which inhibition of DNA synthesis was observed / inhibition of DNA synthesis, percent of control (in words): 24 hours; for effect on DNA synthesis in presence of 125 μM Ca2+: 125 μM Ca2+ medium; for effect on DNA synthesis ([3H]thymidine incorporation into DNA): control (25 μM Ca2+) medium; for concentration at which DNA synthesis was inhibited / inhibition of DNA synthesis, percent of control (in words): FIG. 21B; for concentration at which DNA synthesis was inhibited: lowest tested 25 μg/mL, highest tested 100 μg/mL; for concentration of maximal inhibition of DNA synthesis / inhibition of DNA synthesis compared with egg-derived PG / lowest concentration at which inhibition of DNA synthesis was observed: liposomes; for inhibition of DNA synthesis compared with egg-derived PG / lowest concentration at which inhibition of DNA synthesis was observed: FIG. 20A; for inhibition of DNA synthesis, percent of control (in words): PG versus PP headgroup species
# Method: (§1) Keratinocytes were prepared from ICR CD-I outbred mice in accordance with a protocol approved by the Institutional Animal Care and Use Committee. Briefly, the skins were harvested and incubated overnight in 0.25% trypsin at 4° C. The epidermis and dermis were separated and basal keratinocytes scraped from the underside of the epidermis. The cells were collected by centrifugation and incubated overnight in an atmosphere of 95% air/5% carbon dioxide at 37° C. in plating medium as described in Dodd M E, Ristich V L, Ray S, Lober R M, Bollag W B (2005) Regulation of protein kinase D during differentiation and proliferation of primary mouse keratinocytes. J Invest Dermatol 125:294-306, incorporated herein by reference. The plating medium was replaced with serum-free keratinocyte medium (SFKM) also as in Dodd, et al., and the cells were refed every 1-2 days with fresh medium until use.
# (§2) [^3H]Thymidine incorporation into DNA was determined as a measure of DNA synthesis as previously described by Griner, et al., above. Near-confluent keratinocyte cultures were incubated for 24 hours in SFKM containing the indicated additions. PG was added in the form of liposomes prepared by bath sonication of dried PG in SFKM to make a stock solution of 2 mg/mL. [^3H]Thymidine at a final concentration of 1 μCi/mL was then added to the cells for an additional 1-hour incubation. Reactions were terminated by washing with PBS- and macromolecules precipitated with ice-cold 5% trichloroacetic acid. Cells were solubilized in 0.3 M NaOH and the radioactivity incorporated into DNA quantified by liquid scintillation spectroscopy.
# (§3) [^3H]Thymidine incorporation was used as a measure of DNA synthesis and was performed as described in Example 2. Liposomes containing PG and functional derivatives thereof were prepared by bath sonication as described in Example 2, with the exception that different concentrations of material were employed.
# AQP3 null mutant mouse = settings: studies of the AQP3 null mutant mouse; cited from earlier work
# [2] = test system: primary epidermal keratinocytes; assay: Radiolabeled phosphatidylglycerol formation in intact keratinocytes; format: cell-based, mouse
# Method: Primary epidermal keratinocytes were prepared from 1-3-day old neonatal ICR mice after trypsin flotation of the skin and mechanical separation of the epidermis from the dermis. The epidermal cells were released by scraping, collected by centrifugation and plated in 6-well dishes in a medium consisting of MEM containing 25 μM calcium, 2% dialyzed fetal bovine serum, 2 mM glutamine, 5 ng/mL EGF, ITS (6.25 μg/mL insulin+6.25 μg/mL transferrin+6.25 ng/mL selenious acid+5.35 μg/mL linoleic acid+1.25% bovine serum albumin), 100 U/mL penicillin, 100 μg/mL streptomycin and 0.25 μg/mL fungizone. After an overnight incubation, the cells were refed with serum-free keratinocyte medium (SFKM), in which 2% dialyzed fetal bovine serum was replaced with 90 μg/mL bovine pituitary extract. Cells were refed with fresh medium every 1-3 days.
# For the PLD assay cultured primary keratinocytes were labeled for 20-24 hours with 2.5 μCi/ml [^3H] oleic acid. The cells were then exposed to vehicle or 100 nM PMA in the presence of 0.5% ethanol for 30 minutes. To measure the formation of radiolabeled phosphatidylglycerol, cells were treated for 24 hours with SFKM containing vehicle, 250 nM 1,25-dihydroxyvitamin D3 or 125 μM calcium and then labeled for an additional 30 minutes with 1-2.5 μCi/mL [^3H] or 0.4-0.5 μCi/mL [^14C]glycerol. For experiments investigating the extracellular calcium dependence of PG formation, cells were incubated for 24 hours in SFKM containing various calcium concentrations prior to the addition of 5 μCi/mL [^3H]glycerol for 30 minutes. In some cases, cells were stimulated with 25 μM calcium (control)—or 125 μM calcium-containing SFKM for 24 hours prior to the addition of [^14C]glycerol in the presence and absence of 1% ethanol. To measure phosphatidylglycerol formation in response to PMA, unlabeled cells were stimulated with 100 nM PMA in the presence of radiolabeled glycerol, as above. Reactions were terminated and the radiolabeled phosphatidylalcohol extracted, separated by thin-layer chromatography and quantified as described by Bollag (1998), referenced above.
# [3] = test system: slowly dividing keratinocytes; assay: Assay of DNA synthesis ([3H]thymidine incorporation) in slowly proliferating keratinocytes; format: cell-based, mouse; settings: liposomes, 24 hours; for effect on DNA synthesis ([3H]thymidine incorporation into DNA): keratinocytes with reduced proliferation; for lowest concentration at which stimulation of DNA synthesis was observed / stimulation of DNA synthesis compared with egg-derived PG: FIG. 20B
# Method: Confluent keratinocytes were treated for 24 hours with the indicated concentrations of phosphatidylglycerol (PG), prepared via bath sonication of PG in serum-free keratinocyte medium. [^3H]Thymidine incorporation into DNA was then determined as above. [^3H]Thymidine incorporation into DNA under control conditions was 12,880±1,040 cpm/well. Values represent the means±SEM of 3 separate experiments performed in duplicate; *p<0.01, **p<0.001 versus the control value.
# as §1, §2, §3
compound,measurement,setting,value
"CC(O)CO (centres unmarked) [1,2-propylene glycol]",effect on DNA synthesis in presence of 125 μM Ca2+,[1],dose dependent inhibition
same,effect on DNA synthesis ([3H]thymidine incorporation into DNA),[1],dose dependent inhibition
same,correction of the epidermal phenotype of the knockout model,AQP3 null mutant mouse,not
"OCCCO [1,3-propylene glycol]",correction of the epidermal phenotype of the knockout model,AQP3 null mutant mouse,not
"C=C1/C(=C\C=C2/CCC[C@]3(C)[C@@H]([C@H](C)CCCC(C)(C)O)CC[C@@H]23)C[C@@H](O)C[C@@H]1O [1,25-dihydroxyvitamin D3]",radiolabeled PG formation relative to control cells,"[2]; 24 hours pretreatment (250 nM 1,25-dihydroxyvitamin D3 or 125 μM calcium), then [3H]glycerol 30 minutes",did not increase radiolabeled PG formation
same,PG production,"[2]; intermediate (10 nM) and high (250 nM) concentrations, 24 hours",significantly inhibited PG production
"CCCCCC(=O)OCC(COP(=O)(O)OCC(O)CO)OC(=O)CCCCC (centres unmarked) [DHPG, dihexanoyl-PG]",effect on DNA synthesis ([3H]thymidine incorporation into DNA),[3],only mildly stimulatory
"CCCCC/C=C\C/C=C\CCCCCCCC(=O)OC[C@H](COP(=O)(O)OCC(O)CO)OC(=O)CCCCCCC/C=C\C/C=C\CCCCC (some centres unmarked) [DLPG, dilinoleoyl-PG]",effect on DNA synthesis ([3H]thymidine incorporation into DNA),[1],inhibit DNA synthesis in a dose dependent manner
same,concentration at which DNA synthesis was inhibited,[1],≤ 25 µg/mL
same,concentration of maximal inhibition of DNA synthesis,[1],100 µg/mL
same,inhibition of DNA synthesis compared with egg-derived PG,[1],at least as strongly as egg-derived PG
same,lowest concentration at which inhibition of DNA synthesis was observed,[1],6.25 µg/mL
"CCCCC/C=C\C/C=C\CCCCCCCC(=O)OC[C@H](COP(=O)(O)OCCC)OC(=O)CCCCCCC/C=C\C/C=C\CCCCC [DLPP, dilinoleoyl-PP]","inhibition of DNA synthesis, percent of control (in words)",[1],not statistically significant
same,concentration at which DNA synthesis was inhibited,[1],100 µg/mL
"CCCCCCCC/C=C\CCCCCCCC(=O)OC[C@H](COP(=O)(O)OCC(O)CO)OC(=O)CCCCCCC/C=C\CCCCCCCC (some centres unmarked) [DOPG, dioleoyl-PG]",concentration of maximal stimulation of DNA synthesis,[3],100 µg/mL
same,lowest concentration at which stimulation of DNA synthesis was observed,[3],12.5 µg/mL
same,stimulation of DNA synthesis compared with egg-derived PG,[3],more potently than egg-derived PG
same,effect on DNA synthesis ([3H]thymidine incorporation into DNA),[3],potent stimulator of DNA synthesis
same,effect on DNA synthesis ([3H]thymidine incorporation into DNA),[1],no inhibition of DNA synthesis
"CCCCCCCC/C=C\CCCCCCCC(=O)OC[C@H](COP(=O)(O)OCCC)OC(=O)CCCCCCC/C=C\CCCCCCCC [DOPP, dioleoyl-phosphatidylpropanol]",effect on DNA synthesis ([3H]thymidine incorporation into DNA),[1],no impact on DNA synthesis
same,"inhibition of DNA synthesis, percent of control (in words)",[1],lack of effect
"CCCCCCCCCCCCCCCC(=O)OCC(COP(=O)(O)OCC(O)CO)OC(=O)CCCCCCCCCCCCCCC (centres unmarked) [DPPG, dipalmitoyl-PG]",lowest concentration at which stimulation of DNA synthesis was observed,[3],50 µg/mL
same,stimulation of DNA synthesis compared with egg-derived PG,[3],approximately the same level as egg-derived PG
"CCCCCCCCCCCCCCCC(=O)OC[C@H](COP(=O)(O)OCCC)OC(=O)CCCCCCCCCCCCCCC [DPPP, dipalmitoyl-PP]",effect on DNA synthesis ([3H]thymidine incorporation into DNA),[1],did not affect DNA synthesis
same,"inhibition of DNA synthesis, percent of control (in words)",[1],lack of effect
"CCCCC/C=C\C/C=C\C/C=C\C/C=C\CCCC(=O)O[C@H](COC(=O)CCCCCCCCCCCCCCC)COP(=O)(O)OCC(O)CO (some centres unmarked) [PAPG, palmitoyl-arachidonoyl-PG]",effect on DNA synthesis ([3H]thymidine incorporation into DNA),[3],only mildly stimulatory
same,effect on DNA synthesis ([3H]thymidine incorporation into DNA),[1],inhibit DNA synthesis in a dose dependent manner
same,concentration of maximal inhibition of DNA synthesis,[1],100 µg/mL
same,inhibition of DNA synthesis compared with egg-derived PG,[1],at least as strongly as egg-derived PG
same,lowest concentration at which inhibition of DNA synthesis was observed,[1],12.5 µg/mL
"CCCCCCCC/C=C\CCCCCCCC(=O)O[C@H](COC(=O)CCCCCCCCCCCCCCC)COP(=O)(O)OCC(O)CO (some centres unmarked) [POPG, palmitoyl-oleoyl-PG]",effect on DNA synthesis ([3H]thymidine incorporation into DNA),[3],only mildly stimulatory
same,effect on DNA synthesis ([3H]thymidine incorporation into DNA),[1],moderate inhibition of DNA synthesis
same,lowest concentration at which inhibition of DNA synthesis was observed,[1],100 µg/mL
CCO [ethanol],basal (control) PG production,"[2]; 1% ethanol, 25 μM calcium control cells",without affecting basal (control) PG production
same,PG formation stimulated by preexposure to elevated extracellular calcium,"[2]; 1% ethanol, cells pretreated with 125 μM calcium, [14C]glycerol",significantly inhibited PG formation
OC[C@@H](O)[C@@H](O)[C@H](O)[C@@H](O)CO [sorbitol],effect on DNA synthesis in presence of 125 μM Ca2+,[1],no significant effect
same,effect on DNA synthesis ([3H]thymidine incorporation into DNA),[1],no significant effect
OC[C@@H](O)[C@H](O)[C@@H](O)CO [xylitol],effect on DNA synthesis in presence of 125 μM Ca2+,[1],no significant effect
same,effect on DNA synthesis ([3H]thymidine incorporation into DNA),[1],no significant effect
same,correction of the epidermal phenotype of the knockout model,AQP3 null mutant mouse,not
palmitoyl-linoleoyl-PG [PLPG],effect on DNA synthesis ([3H]thymidine incorporation into DNA),[1],inhibit DNA synthesis in a dose dependent manner
same,concentration of maximal inhibition of DNA synthesis,[1],100 µg/mL
same,inhibition of DNA synthesis compared with egg-derived PG,[1],at least as strongly as egg-derived PG
same,lowest concentration at which inhibition of DNA synthesis was observed,[1],50 µg/mL
